Data from paper PMC6407917, “Identification of GSK3186899/DDD853651 as a Preclinical Development Candidate for the Treatment of Visceral Leishmaniasis” (Journal of Medicinal Chemistry, 2018).

How the values were obtained:
Assay in all cases: biochemical
Parameters in all cases: species or system HEK293/K-562/placenta mixed human extract; Kinobeads chemoproteomic competition binding, quantified by TMT LC-MS/MS, dose response up to 20 uM
ACVR1 = ACVR1 (Homo sapiens, UniProt Q04771)
CAMKK1 = CAMKK1 (Homo sapiens, UniProt Q8N5S9)
CAMKK1, sequence (Q8N5S9 whole entry): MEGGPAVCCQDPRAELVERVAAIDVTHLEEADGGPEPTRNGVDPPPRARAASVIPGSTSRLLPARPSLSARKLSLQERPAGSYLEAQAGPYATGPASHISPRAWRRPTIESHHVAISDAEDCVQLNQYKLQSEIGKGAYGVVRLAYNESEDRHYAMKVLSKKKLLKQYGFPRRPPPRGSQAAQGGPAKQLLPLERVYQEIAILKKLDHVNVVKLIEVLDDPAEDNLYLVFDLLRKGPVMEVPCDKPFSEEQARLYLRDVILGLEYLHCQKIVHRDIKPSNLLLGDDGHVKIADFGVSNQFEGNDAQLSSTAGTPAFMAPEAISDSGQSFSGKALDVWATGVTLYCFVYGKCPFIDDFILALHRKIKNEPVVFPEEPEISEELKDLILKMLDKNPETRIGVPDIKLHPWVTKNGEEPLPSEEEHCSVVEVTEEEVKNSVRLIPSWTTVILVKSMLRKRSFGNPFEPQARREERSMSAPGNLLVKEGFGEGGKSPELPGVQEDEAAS

CDC42BPG = CDC42BPG (Homo sapiens, UniProt Q6DT37)
CHEK1 = CHEK1 (Homo sapiens, UniProt O14757)
CIT = CIT (Homo sapiens, UniProt O14578)
CLK2 = CLK2 (Homo sapiens, UniProt P49760)
EPHA4 = EPHA4 (Homo sapiens, UniProt P54764)
EPHB1 = EPHB1 (Homo sapiens, UniProt P54762)
EPHB1, sequence (P54762 whole entry): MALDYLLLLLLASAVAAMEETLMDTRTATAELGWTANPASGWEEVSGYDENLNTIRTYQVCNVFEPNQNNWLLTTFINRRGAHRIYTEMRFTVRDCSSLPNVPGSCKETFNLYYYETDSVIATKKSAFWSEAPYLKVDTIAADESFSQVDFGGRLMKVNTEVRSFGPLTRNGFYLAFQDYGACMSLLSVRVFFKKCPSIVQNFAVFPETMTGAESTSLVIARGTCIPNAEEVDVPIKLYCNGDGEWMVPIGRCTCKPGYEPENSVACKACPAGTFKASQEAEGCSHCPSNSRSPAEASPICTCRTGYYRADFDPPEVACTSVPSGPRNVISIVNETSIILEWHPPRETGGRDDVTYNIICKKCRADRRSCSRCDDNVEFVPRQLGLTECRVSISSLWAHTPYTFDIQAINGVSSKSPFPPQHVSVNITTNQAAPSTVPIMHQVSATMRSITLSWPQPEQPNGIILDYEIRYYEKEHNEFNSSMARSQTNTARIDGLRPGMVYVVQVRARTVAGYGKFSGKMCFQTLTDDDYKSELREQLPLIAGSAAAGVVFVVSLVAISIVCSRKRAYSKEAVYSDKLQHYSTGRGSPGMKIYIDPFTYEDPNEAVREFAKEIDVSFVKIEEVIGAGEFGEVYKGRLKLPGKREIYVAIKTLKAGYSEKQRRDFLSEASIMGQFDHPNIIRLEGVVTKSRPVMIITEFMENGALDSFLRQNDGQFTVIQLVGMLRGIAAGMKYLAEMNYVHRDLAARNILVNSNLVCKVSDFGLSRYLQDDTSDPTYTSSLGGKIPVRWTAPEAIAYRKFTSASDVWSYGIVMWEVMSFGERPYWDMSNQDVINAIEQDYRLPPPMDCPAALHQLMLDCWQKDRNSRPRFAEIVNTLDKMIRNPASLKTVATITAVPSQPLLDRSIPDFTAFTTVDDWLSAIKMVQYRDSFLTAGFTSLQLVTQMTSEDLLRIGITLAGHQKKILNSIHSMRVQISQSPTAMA

GAK = GAK (Homo sapiens, UniProt O14976)
GAK, sequence (O14976 whole entry): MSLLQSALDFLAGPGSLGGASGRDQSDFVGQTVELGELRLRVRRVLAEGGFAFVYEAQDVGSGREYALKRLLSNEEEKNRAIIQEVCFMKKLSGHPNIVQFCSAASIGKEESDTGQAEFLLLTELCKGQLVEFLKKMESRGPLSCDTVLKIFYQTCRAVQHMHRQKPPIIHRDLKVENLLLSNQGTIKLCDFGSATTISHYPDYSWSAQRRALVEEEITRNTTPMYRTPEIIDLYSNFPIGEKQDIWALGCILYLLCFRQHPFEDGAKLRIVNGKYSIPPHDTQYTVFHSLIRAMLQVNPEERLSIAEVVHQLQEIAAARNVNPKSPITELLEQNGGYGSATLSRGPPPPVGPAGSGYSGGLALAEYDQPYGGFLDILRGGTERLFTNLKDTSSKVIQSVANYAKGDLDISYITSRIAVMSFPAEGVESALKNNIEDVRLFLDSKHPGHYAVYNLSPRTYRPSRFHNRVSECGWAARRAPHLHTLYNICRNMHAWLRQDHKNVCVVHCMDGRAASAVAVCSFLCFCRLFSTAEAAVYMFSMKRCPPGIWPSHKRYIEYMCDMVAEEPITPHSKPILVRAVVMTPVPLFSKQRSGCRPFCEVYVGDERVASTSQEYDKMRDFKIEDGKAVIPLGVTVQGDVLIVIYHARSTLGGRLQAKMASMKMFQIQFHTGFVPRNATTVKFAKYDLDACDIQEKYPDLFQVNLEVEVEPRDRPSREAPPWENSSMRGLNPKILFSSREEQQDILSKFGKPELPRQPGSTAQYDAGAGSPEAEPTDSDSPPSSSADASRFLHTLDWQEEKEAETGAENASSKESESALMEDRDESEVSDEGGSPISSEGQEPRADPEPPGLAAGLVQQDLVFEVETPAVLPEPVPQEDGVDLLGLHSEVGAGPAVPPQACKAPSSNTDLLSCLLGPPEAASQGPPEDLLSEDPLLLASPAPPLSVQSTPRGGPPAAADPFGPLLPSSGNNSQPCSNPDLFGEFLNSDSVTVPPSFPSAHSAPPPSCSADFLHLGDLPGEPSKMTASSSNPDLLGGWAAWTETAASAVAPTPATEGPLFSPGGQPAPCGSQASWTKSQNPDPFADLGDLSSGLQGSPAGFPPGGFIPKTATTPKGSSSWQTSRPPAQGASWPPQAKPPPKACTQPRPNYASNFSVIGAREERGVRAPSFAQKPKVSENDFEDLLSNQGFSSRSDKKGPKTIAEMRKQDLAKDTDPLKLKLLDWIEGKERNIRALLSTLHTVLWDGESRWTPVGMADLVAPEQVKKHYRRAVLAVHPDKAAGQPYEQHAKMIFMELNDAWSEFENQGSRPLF

HIPK3 = HIPK3 (Homo sapiens, UniProt Q9H422)
MAP2K3 = MAP2K3 (Homo sapiens, UniProt P46734)
MAP2K3, sequence (P46734 whole entry): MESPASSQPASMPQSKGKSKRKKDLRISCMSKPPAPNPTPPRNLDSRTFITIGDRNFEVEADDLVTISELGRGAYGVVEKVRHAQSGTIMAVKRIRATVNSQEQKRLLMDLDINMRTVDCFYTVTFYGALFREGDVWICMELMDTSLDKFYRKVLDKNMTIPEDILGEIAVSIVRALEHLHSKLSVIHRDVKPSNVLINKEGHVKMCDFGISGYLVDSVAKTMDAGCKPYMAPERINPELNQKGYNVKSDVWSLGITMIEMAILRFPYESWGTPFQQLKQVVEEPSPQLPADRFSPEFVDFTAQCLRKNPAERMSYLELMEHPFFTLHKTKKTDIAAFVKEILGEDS

MAP2K5 = MAP2K5 (Homo sapiens, UniProt Q13163)
MAST3 = MAST3 (Homo sapiens, UniProt O60307)
MAST3, sequence (O60307 whole entry): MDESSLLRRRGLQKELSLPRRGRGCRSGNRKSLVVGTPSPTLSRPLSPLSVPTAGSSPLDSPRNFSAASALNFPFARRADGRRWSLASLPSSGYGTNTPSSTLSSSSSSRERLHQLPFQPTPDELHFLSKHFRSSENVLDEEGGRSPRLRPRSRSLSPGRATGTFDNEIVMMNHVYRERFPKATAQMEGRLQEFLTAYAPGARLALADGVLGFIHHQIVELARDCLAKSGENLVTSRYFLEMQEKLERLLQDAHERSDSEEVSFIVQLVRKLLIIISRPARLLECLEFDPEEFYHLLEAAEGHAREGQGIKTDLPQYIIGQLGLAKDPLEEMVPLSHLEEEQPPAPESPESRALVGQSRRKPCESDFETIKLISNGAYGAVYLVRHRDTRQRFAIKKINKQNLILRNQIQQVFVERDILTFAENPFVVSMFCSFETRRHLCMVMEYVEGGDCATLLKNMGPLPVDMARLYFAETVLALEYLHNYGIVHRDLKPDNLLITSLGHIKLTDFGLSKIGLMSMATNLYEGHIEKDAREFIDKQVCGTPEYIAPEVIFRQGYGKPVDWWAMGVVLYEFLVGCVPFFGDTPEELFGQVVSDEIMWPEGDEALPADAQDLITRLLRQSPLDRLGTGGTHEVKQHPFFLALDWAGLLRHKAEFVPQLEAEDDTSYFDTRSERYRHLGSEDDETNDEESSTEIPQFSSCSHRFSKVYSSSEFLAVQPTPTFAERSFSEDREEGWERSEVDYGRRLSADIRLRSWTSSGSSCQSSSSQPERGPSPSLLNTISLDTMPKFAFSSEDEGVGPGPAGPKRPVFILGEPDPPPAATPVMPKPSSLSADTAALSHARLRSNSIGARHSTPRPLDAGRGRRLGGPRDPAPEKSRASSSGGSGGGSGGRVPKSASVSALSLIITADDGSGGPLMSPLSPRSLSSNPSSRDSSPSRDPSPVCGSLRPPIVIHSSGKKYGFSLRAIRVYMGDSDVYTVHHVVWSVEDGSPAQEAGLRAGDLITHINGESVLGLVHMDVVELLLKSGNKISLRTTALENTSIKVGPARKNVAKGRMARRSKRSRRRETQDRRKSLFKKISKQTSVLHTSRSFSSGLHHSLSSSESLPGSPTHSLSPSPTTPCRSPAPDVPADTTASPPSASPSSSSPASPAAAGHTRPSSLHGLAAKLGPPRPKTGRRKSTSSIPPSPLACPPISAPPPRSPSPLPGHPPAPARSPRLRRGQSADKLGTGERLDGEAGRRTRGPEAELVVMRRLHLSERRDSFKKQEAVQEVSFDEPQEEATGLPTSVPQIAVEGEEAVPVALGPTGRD

NEK9 = NEK9 (Homo sapiens, UniProt Q8TD19)
NUAK2 = NUAK2 (Homo sapiens, UniProt Q9H093)
PIM2 = PIM2 (Homo sapiens, UniProt Q9P1W9)
PIM3 = PIM3 (Homo sapiens, UniProt Q86V86)
SGK3 = SGK3 (Homo sapiens, UniProt Q96BR1)
SGK3, sequence (Q96BR1 whole entry): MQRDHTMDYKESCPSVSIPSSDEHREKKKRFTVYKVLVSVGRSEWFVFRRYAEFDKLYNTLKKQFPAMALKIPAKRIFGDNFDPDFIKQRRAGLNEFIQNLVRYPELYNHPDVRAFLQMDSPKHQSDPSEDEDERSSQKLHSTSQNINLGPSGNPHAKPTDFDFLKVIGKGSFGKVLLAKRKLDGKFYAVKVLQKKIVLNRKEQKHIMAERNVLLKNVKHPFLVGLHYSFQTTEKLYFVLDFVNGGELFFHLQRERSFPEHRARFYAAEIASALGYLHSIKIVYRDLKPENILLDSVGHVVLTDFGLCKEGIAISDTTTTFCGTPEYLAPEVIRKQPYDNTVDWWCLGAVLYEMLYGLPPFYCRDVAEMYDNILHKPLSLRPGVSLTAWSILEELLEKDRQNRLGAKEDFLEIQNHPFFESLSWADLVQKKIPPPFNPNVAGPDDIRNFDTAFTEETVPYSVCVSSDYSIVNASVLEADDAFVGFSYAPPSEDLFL

TAOK2 = TAOK2 (Homo sapiens, UniProt Q9UL54)
TEC = TEC (Homo sapiens, UniProt P42680)
mTOR = mTOR (Homo sapiens, UniProt P42345)

Measured: IC50

COc1nc(N[C@H]2CC[C@H](NS(=O)(=O)CC(C)C)CC2)nc2[nH]nc(N3CCOC[C@H]3C)c12 [compound 39, N-(trans-4-((4-Methoxy-3-((R)-3-methylmorpholino)-1H-pyrazolo[3,4-d]pyrimidin-6-yl)amino)cyclohexyl)-2-methylpropane-1-sulfonamide]
≥ 20 µM: all assays above
